From patent publication US12447153B2, “HER2 mutation inhibitors” (Array BioPharma Inc., priority 2021, dated 2025)

Columns and labels:
[1] = target: ErbB2 WT (Homo sapiens (Human), UniProt P04626); assay: ErbB Enzyme Assay (HTRF KinEASE-TK), Assay 2; assay type: biochemical
[2] = target: EGFR (Homo sapiens (Human), UniProt P00533); assay: ErbB Enzyme Assay (HTRF KinEASE-TK), Assay 3; assay type: biochemical
[3] = target: ErbB2 with Exon 20 YVMA insertion (HER2-YVMA) (Homo sapiens (Human), UniProt P04626, INS775YVMA); assay: Cellular Phosphorylation Assay, Assay 4 (constitutive ErbB2 phosphorylation, NIH 3T3 cells); assay type: cell-based
[4] = target: EGFR wild type (EGFR WT) (Homo sapiens (Human), UniProt P00533); assay: Cellular Phosphorylation Assay, Assay 5 (EGF-stimulated EGFR phosphorylation, NIH 3T3 cells); assay type: cell-based
[5] = target: BCRP (Homo sapiens (Human), UniProt Q9UNQ0); assay: BCRP MDCKII efflux assay (Assay 7); assay type: in vitro ADME; conditions: dog; efflux ratio Papp(B-A)/Papp(A-B), BCRP MDCKII cells; read-out: Assay 7 Pe Ratio
Experimental: Assay conditions included with and without the BCRP-specific inhibitor, KO143, at a concentration of 0.3 μM to ascertain the contribution of BCRP to the efflux value of the test compound.
Final organic concentration in the assay was 1%.

[6] = EGF-stimulated EGFR WT phosphorylation
[7] = cellular ErbB2 YVMA phosphorylation
[8] = cellular EGFR WT phosphorylation, EGF-stimulated

ErbB2 WT, sequence (P04626 23-1255): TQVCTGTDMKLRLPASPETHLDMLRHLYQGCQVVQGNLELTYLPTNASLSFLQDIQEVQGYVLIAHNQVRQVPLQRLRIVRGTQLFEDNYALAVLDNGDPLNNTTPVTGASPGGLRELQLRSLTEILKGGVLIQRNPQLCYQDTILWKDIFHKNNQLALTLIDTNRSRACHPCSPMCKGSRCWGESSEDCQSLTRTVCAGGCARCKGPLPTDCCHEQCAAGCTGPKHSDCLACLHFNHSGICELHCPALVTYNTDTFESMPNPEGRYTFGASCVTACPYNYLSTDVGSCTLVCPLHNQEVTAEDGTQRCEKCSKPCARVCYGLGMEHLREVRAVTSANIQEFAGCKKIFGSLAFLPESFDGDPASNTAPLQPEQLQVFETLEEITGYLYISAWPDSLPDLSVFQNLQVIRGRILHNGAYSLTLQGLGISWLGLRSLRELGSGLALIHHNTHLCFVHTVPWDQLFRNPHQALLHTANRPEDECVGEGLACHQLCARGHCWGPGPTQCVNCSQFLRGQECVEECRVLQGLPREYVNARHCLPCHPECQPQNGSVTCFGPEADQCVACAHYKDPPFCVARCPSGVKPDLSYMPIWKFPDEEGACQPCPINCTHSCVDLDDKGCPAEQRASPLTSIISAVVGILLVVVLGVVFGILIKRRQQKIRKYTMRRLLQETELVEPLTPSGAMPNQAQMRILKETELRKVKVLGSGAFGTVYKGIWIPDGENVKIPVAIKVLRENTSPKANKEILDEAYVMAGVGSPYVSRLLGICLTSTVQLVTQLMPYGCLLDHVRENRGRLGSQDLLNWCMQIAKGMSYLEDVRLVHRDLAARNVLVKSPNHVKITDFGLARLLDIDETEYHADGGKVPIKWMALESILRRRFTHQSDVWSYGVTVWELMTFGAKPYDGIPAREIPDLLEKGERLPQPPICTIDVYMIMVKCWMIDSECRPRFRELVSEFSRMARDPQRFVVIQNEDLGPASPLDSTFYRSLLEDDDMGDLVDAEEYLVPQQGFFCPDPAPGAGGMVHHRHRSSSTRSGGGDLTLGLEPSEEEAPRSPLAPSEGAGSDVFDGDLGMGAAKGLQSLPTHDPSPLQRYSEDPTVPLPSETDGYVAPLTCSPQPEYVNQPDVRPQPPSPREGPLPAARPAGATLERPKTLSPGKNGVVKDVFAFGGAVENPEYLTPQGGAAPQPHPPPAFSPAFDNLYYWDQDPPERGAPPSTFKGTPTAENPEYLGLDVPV
BCRP, sequence (Q9UNQ0 whole entry): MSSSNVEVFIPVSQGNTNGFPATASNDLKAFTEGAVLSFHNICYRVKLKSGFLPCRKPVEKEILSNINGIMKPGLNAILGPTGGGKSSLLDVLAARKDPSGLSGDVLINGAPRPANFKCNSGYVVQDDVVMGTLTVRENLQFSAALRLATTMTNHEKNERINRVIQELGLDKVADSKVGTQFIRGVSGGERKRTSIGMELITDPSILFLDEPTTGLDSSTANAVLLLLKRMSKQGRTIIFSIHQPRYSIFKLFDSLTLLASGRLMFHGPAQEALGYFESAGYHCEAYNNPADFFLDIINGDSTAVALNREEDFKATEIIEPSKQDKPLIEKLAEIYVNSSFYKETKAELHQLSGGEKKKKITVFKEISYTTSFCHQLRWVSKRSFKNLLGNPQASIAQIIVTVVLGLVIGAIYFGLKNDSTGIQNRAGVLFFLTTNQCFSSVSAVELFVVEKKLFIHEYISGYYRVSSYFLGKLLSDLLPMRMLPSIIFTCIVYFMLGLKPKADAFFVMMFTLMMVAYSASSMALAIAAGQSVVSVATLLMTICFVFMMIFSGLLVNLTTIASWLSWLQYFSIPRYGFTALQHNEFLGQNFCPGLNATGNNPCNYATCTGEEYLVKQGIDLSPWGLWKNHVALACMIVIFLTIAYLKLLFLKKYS
ErbB2 with Exon 20 YVMA insertion (HER2-YVMA), sequence (P04626 other isoform, or with tags, fused parts or gaps ins YVMA behind 775): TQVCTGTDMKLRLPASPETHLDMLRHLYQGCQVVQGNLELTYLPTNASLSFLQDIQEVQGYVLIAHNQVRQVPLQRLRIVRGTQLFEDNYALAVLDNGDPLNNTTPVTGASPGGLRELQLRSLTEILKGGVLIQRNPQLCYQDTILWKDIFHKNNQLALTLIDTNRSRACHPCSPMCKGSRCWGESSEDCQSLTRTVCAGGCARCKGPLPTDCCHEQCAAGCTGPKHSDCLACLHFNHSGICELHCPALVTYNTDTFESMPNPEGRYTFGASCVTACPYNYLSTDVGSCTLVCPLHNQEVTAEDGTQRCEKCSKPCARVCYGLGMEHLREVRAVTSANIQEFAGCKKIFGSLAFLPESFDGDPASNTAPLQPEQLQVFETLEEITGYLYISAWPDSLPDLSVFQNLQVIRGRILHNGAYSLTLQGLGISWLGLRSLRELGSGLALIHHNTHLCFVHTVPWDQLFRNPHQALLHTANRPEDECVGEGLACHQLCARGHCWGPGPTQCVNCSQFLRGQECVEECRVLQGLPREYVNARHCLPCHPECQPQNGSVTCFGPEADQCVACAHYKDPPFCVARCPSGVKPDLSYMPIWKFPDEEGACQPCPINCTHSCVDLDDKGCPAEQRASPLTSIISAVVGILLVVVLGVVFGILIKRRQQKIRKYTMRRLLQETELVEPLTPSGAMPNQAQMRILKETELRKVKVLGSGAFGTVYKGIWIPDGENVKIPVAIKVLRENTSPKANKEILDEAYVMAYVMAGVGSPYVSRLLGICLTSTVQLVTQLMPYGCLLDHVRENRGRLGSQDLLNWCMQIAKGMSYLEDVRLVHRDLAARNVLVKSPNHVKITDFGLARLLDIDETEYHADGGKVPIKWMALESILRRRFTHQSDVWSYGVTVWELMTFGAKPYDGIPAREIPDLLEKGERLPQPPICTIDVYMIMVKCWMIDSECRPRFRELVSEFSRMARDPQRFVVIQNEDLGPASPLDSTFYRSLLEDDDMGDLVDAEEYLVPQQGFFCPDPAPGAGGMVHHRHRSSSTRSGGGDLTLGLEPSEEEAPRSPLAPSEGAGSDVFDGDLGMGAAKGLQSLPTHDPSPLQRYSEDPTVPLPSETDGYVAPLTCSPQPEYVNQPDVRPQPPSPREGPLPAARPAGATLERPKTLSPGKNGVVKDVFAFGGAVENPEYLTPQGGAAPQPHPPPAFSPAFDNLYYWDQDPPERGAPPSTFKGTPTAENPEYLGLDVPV
EGFR wild type (EGFR WT), sequence (P00533 25-1210): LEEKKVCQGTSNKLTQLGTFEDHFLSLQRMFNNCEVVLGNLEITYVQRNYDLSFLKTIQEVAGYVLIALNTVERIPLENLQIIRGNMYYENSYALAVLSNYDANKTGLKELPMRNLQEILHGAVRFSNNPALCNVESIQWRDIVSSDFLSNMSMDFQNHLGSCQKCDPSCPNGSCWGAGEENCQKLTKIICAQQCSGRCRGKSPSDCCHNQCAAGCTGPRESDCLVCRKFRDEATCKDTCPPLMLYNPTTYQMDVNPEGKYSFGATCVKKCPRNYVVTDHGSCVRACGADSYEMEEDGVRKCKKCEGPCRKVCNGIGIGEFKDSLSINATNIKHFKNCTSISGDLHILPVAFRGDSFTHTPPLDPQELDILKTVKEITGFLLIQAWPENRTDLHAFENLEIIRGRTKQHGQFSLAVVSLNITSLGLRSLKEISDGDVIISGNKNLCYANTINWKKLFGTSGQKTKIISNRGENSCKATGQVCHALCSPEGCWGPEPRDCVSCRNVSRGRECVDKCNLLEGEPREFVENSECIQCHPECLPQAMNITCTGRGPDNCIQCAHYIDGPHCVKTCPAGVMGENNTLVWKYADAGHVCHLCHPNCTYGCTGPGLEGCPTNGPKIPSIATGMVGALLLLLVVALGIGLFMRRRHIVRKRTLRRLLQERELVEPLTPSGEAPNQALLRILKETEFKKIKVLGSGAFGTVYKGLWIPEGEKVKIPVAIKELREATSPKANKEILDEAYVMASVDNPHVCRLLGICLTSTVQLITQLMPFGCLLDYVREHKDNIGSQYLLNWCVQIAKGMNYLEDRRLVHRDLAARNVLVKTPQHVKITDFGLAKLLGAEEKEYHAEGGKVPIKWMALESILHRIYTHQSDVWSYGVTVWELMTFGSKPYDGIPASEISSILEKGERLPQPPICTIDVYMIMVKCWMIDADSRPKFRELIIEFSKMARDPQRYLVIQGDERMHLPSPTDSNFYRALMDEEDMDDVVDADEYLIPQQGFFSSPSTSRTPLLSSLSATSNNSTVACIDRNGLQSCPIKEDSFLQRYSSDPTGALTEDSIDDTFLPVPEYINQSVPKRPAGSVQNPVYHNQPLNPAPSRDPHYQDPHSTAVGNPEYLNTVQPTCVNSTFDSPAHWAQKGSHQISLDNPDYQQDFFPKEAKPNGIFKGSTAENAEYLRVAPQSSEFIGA

| IC50 ([1]; ErbB2 WT enzyme) [nM] | IC50 ([2]; EGFR enzyme) [nM] | IC50 ([3]; ErbB2 YVMA phosphorylation) [nM] | IC50 [4, 6] [nM] | efflux ratio at 2 h, 1 µM [5] | IC50 ([1]; ErbB2 WT enzyme assay) [nM] | IC50 ([2]; EGFR enzyme assay) [nM] | IC50 [3, 7] [nM] | IC50 [4, 8] [nM] | SMILES |
| --- | --- | --- | --- | --- | --- | --- | --- | --- | --- |
|  |  |  |  | 14.4 | 47.2 | 3370 | 21 | ≥ 5000 | C=CC(=O)N1[C@H](C)CN(c2ccc3ncnc(Nc4ccc(Oc5cc(F)c6c(c5)ncn6C)c(C)c4)c3n2)C[C@@H]1C [Example 359] |
|  |  |  |  | 6.2 | 452 | 1060 | 12.8 | ≥ 5000 | C=CC(=O)N1CCN(c2ccc3ncnc(Nc4cc(Cl)c(Oc5cnc6c(c5)ncn6C)cc4F)c3n2)CC1(C)C [Example 452] |
|  |  |  |  | 7.2 | 1170 | ≥ 10000 | 22.2 | ≥ 5000 | C=CC(=O)N1C[C@H]2C[C@@H]1CN(c1ccc3ncnc(Nc4cc(Cl)c(Oc5cnc6c(c5)ncn6C)cc4F)c3n1)C2 [Example 294] |
|  |  |  |  | 12.8 | 47.3 | 1380 | 29.8 | 2050 | C=CC(=O)N1C[C@@H]2CN(c3ccc4ncnc(Nc5ccc(Oc6ccn7ncnc7c6)c(C)c5F)c4n3)C[C@@H]21 [Example 318] |
|  |  |  |  | 25.2 | 10 | 350 | 6.7 | 302 | C=CC(=O)N1CCN(c2ccc3ncnc(Nc4ccc(Oc5cc(F)c6c(c5)ncn6C)c(C)c4)c3n2)CC1 [Example 276] |
|  |  |  |  | 5.8 | 11.3 | 277 | 9.5 | 653 | C=CC(=O)N1CCN(c2ccc3ncnc(Nc4ccc(Oc5cnc6c(c5)ncn6C)c(C)c4F)c3n2)C[C@@H]1C(F)F (racemic) [Example 300] |
| 27.9 | 2630 | 16.8 | 4370 | 1.9 |  |  |  |  | C=CC(=O)N1CCCC[C@@H](c2ccc3ncnc(Nc4cc(C)c(Oc5ccc6c(c5)ncn6C)cc4F)c3n2)C1 (racemic) [Example 137, rac-(R)-1-(3-(4-((2-fluoro-5-methyl-4-((1-methyl-1H-benzo[d]imidazol-5-yl)oxy)phenyl)amino)pyrido[3,2-d]pyrimidin-6-yl)azepan-1-yl)prop-2-en-1-one] |
|  |  |  |  | 20.3 | 29.2 | ≥ 10000 | 17.5 | ≥ 5000 | C=CC(=O)N1CCN(c2ccc3ncnc(Nc4ccc(Oc5ccc6c(c5)ncn6C)c(C(F)F)c4)c3n2)CC1 [Example 447] |
|  |  |  |  | 17.2 | 474 | ≥ 10000 | 49.5 | ≥ 5000 | C=CC(=O)N1C[C@H]2C[C@@H]1CN(c1ccc3ncnc(Nc4cc(C)c(Oc5cnc6c(c5)ncn6C)cc4F)c3n1)C2 [Example 353] |
|  |  |  |  | 7.7 | 50 | 692 | 15.7 | 1500 | C=CC(=O)N1C[C@H]2CC[C@@H]1CN2c1ccc2ncnc(Nc3ccc(Oc4ccn5ncnc5c4)c(Cl)c3F)c2n1 [Example 328] |
|  |  |  |  | 13.7 | 19.5 | 1640 | 17.2 | 4550 | C=CC(=O)N1C[C@H]2C[C@@H]1[C@H](c1ccc3ncnc(Nc4ccc(Oc5ccn6ncnc6c5)c(C)c4)c3n1)C2 [Example 405] |

Continued, compound first:

| SMILES | IC50 ([1]; ErbB2 WT enzyme) [nM] | IC50 ([2]; EGFR enzyme) [nM] | IC50 ([3]; ErbB2 YVMA phosphorylation) [nM] | IC50 [4, 6] [nM] | efflux ratio at 2 h, 1 µM [5] | IC50 ([1]; ErbB2 WT enzyme assay) [nM] | IC50 ([2]; EGFR enzyme assay) [nM] | IC50 [3, 7] [nM] | IC50 [4, 8] [nM] |
| --- | --- | --- | --- | --- | --- | --- | --- | --- | --- |
| C=CC(=O)N1CCN(c2nc3c(Oc4ccc(Oc5ccc6c(c5)ncn6C)c(C)c4)ncnc3cc2OC)CC1 [Example 41, 1-(4-(7-methoxy-4-(3-methyl-4-((1-methyl-1H-benzo[d]imidazol-5-yl)oxy)phenoxy)pyrido[3,2-d]pyrimidin-6-yl)piperazin-1-yl)prop-2-en-1-one] | 130 | 5070 | 31 | ≥ 5000 | 16.7 |  |  |  |  |
| C=CC(=O)N1C2CCC1CN(c1ccc3ncnc(Nc4cc(C)c(Oc5ccn6ncnc6c5)cc4F)c3n1)C2 [Example 443] |  |  |  |  | 10 | 90.6 | 4150 | 25.5 | 2820 |
| C=CC(=O)N1CC[C@@H](c2ccc3ncnc(Nc4cc(C)c(Oc5ccc6c(c5)ncn6C)cc4F)c3n2)C1 (racemic) [Example 132, rac-(R)-1-(3-(4-((2-fluoro-5-methyl-4-((1-methyl-1H-benzo[d]imidazol-5-yl)oxy)phenyl)amino)pyrido[3,2-d]pyrimidin-6-yl)pyrrolidin-1-yl)prop-2-en-1-one] | 75.9 | ≥ 10000 | 18.8 | ≥ 5000 | 7.9 |  |  |  |  |
| C=CC(=O)N1C2CC1CN(c1ccc3ncnc(Nc4ccc(Oc5ccc6c(c5)ncn6C)c(Cl)c4F)c3n1)C2 [Example 325] |  |  |  |  | 10.3 | 21.3 | 255 | 11.6 | 556 |
| C=CC(=O)N1CCN(c2ccc3ncnc(Nc4ccc(Oc5ccc6c(c5)ncn6C)c(C)c4)c3n2)CC1(C)C [Example 103, 1-(2,2-dimethyl-4-(4-((3-methyl-4-((1-methyl-1H-benzo[d]imidazol-5-yl)oxy)phenyl)amino)pyrido[3,2-d]pyrimidin-6-yl)piperazin-1-yl)prop-2-en-1-one] | 2.9 | ≥ 10000 | 4.6 | 1320 | 10.9 |  |  |  |  |
| C=CC(=O)N1C2CCC1CN(c1ccc3ncnc(Nc4ccc(Oc5ccn6ncnc6c5)c(C)c4F)c3n1)C2 [Example 444] |  |  |  |  | 9 | 12 | 379 | 5.9 | 352 |
| C=CC(=O)N1CCN(c2ccc3ncnc(Nc4ccc(Oc5ccc6c(c5)ncn6C)c(C)c4F)c3n2)CC1(C)C [Example 75, 1-(4-(4-((2-fluoro-3-methyl-4-((1-methyl-1H-benzo[d]imidazol-5-yl)oxy)phenyl)amino)pyrido[3,2-d]pyrimidin-6-yl)-2,2-dimethylpiperazin-1-yl)prop-2-en-1-one] | 65.2 | ≥ 10000 | 13.7 | ≥ 5000 | 3.8 |  |  |  |  |
| C=CC(=O)N1CCC(c2ccc3ncnc(Nc4ccc(Oc5ccc6c(c5)ncn6C)c(C)c4)c3n2)C1 (racemic) [Example 120, rac-(R)-1-(3-(4-((3-methyl-4-((1-methyl-1H-benzo[d]imidazol-5-yl)oxy)phenyl)amino)pyrido[3,2-d]pyrimidin-6-yl)pyrrolidin-1-yl)prop-2-en-1-one] | 42 | 7270 | 8.4 | ≥ 5000 | 15.8 |  |  |  |  |
| C=CC(=O)N1CCC(Sc2ccc3ncnc(Nc4ccc(Oc5ccc6c(c5)ncn6C)c(C)c4)c3n2)CC1 [Example 59, 1-(4-((4-((3-methyl-4-((1-methyl-1H-benzo[d]imidazol-5-yl)oxy)phenyl)amino)pyrido[3,2-d]pyrimidin-6-yl)thio)piperidin-1-yl)prop-2-en-1-one] | 25.4 | 534 | 19 | ≥ 5000 | 10.8 |  |  |  |  |
| C=CC(=O)N1CCC2CN(c3ccc4ncnc(Nc5ccc(Oc6ccn7ncnc7c6)c(Cl)c5)c4n3)CC21 (stereo not shown) [Example 70, 1-(5-(4-((4-([1,2,4]triazolo[1,5-a]pyridin-7-yloxy)-3-chlorophenyl)amino)pyrido[3,2-d]pyrimidin-6-yl)hexahydropyrrolo[3,4-b]pyrrol-1(2H)-yl)prop-2-en-1-one] | 10 | 2950 | 21.6 | ≥ 5000 | 41.8 |  |  |  |  |
| C=CC(=O)N1C[C@@H]2CC[C@H]1CN(c1ccc3ncnc(Nc4ccc(Oc5ccn6ncnc6c5)c(C)c4F)c3n1)C2 (racemic) [Example 327] |  |  |  |  | 5.4 | 12.8 | 1160 | 9.3 | 3500 |
| C=CC(=O)N1CCN(c2ccc3ncnc(Nc4ccc(Oc5cnc6c(c5)ncn6C)c(C)c4)c3n2)CC1 [Example 110, 1-(4-(4-((3-methyl-4-((3-methyl-3H-imidazo[4,5-b]pyridin-6-yl)oxy)phenyl)amino)pyrido[3,2-d]pyrimidin-6-yl)piperazin-1-yl)prop-2-en-1-one] | 58 | 6160 | 5 | 2530 | 84.4 |  |  |  |  |
| C=CC(=O)N1CCCN(c2ccc3ncnc(Nc4ccc(Oc5cnc6c(c5)ncn6C)c(Cl)c4)c3n2)CC1 [Example 113, 1-(4-(4-((3-chloro-4-((3-methyl-3H-imidazo[4,5-b]pyridin-6-yl)oxy)phenyl)amino)pyrido[3,2-d]pyrimidin-6-yl)-1,4-diazepan-1-yl)prop-2-en-1-one] | 184 | ≥ 10000 | 30.2 | ≥ 5000 | 37.5 |  |  |  |  |
| C=CC(=O)N1CC2CCC(C1)N2c1ccc2ncnc(Nc3ccc(Oc4ccn5ncnc5c4)c(C)c3F)c2n1 [Example 455] |  |  |  |  | 9.6 | 4.1 | 87.3 | 4.8 | 193 |
| C=CC(=O)N1CCN(c2ccc3ncnc(Nc4ccc(Oc5ccc6c(c5)ncn6C)c(Cl)c4)c3n2)CC1 [Example 72, 1-(4-(4-((3-chloro-4-((1-methyl-1H-benzo[d]imidazol-5-yl)oxy)phenyl)amino)pyrido[3,2-d]pyrimidin-6-yl)piperazin-1-yl)prop-2-en-1-one] | 8.7 | 880 | 4.7 | 511 | 15.4 |  |  |  |  |
